In patent US6432968B1 (Aventis Pharma Deutschland GmbH, priority 1994, dated 2002) one finds inhibition data, which are given here for eight compounds.

The first assay relates to Human peripheral blood mononuclear cells (PBMC). Description: Mixed human lymphocyte reaction (MLR) assay. The class given is cell-based. Conditions: immunosuppressant alone, 0.5 nM, read-out: inhibition of lymphocyte proliferation. The procedure:
coculture of lymphocytes of different […] (MLR=mixed lymphocyte reaction): lymphocytes containing different antigens of the HLA-DR type (=allogens) activate each other non-specifically.
100 μl of those PBMC are mixed with 100 μl of irradiated PMBC (1×10^6 cells/ml) in a well of a microtiter plate. The test substances, alone or in combination, are likewise added to the PBMC. The plates are incubated for 5 days at 37° C. in a moist atmosphere which contains 5% CO2. Then 1 μCi of ^3H-thymidine is added to the cells and they are incubated under the abovementioned conditions for a further 8 hours. The cells are then collected on glass fiber filters and the incorporated radioactivity is determined using a beta counter.
Inhibition is given in percent and referred to uninhibited controls (which correspond to 0%).
Inhibition is given in percent and referred to uninhibited controls (which correspond to 0%)
Consider `C=CC[C@@H]1/C=C(\C)C[C@H](C)C[C@H](OC)[C@H]2O[C@@](O)(C(=O)C(=O)N3CCCC[C@H]3C(=O)O[C@H](/C(C)=C/[C@@H]3CC[C@@H](O)[C@H](OC)C3)[C@H](C)[C@@H](O)CC1=O)[C@H](C)C[C@@H]2OC` [FK 506, Tacrolimus, reference compound], for which the inhibition at 0.0005 µM came out at 30%.
Same read-out and setting: the result for `CO[C@H]1C[C@@H]2CC[C@@H](C)[C@@](O)(O2)C(=O)C(=O)N2CCCC[C@H]2C(=O)O[C@H]([C@H](C)C[C@@H]2CC[C@@H](O)[C@H](OC)C2)CC(=O)[C@H](C)/C=C(\C)[C@@H](O)[C@@H](OC)C(=O)[C@H](C)C[C@H](C)/C=C/C=C/C=C/1C` [RPM, rapamycin, reference compound] reads 35%.

Still in this assay, the particulars now being: read-out: % inhibition of proliferation (100 μM), 100 μM, referred to uninhibited controls (0%).
Regarding `CCCn1cnc2c1c(=O)n(CCCCC(C)O)c(=O)n2C` (centres unmarked) [Compound 3, 1-(5-hydroxyhexyl)-3-methyl-7-propyl-xanthine], the inhibition at 100 µM worked out at 83%.
With `CCCCn1cnc2c1c(=O)n(CCCCC(C)(C)O)c(=O)n2C` [Compound 8, 1-(5-hydroxy-5-methylhexyl)-3-methyl-7-butylxanthine], the inhibition at 100 µM was found to be 91%.
Same read-out and setting: the result for `CCOCn1cnc2c1c(=O)n(CCCCC(C)(C)O)c(=O)n2C` [Compound 9, 7-ethoxymethyl-1-(5-hydroxy-5-methylhexyl)-3-methylxanthine] reads 61%.
The same measure, in the same setting: the result for `CCCCn1cnc2c1c(=O)n(CCCCCC(C)(C)O)c(=O)n2CC` [Compound 11, 7-butyl-3-ethyl-1-(6-hydroxy-6-methylheptyl)-xanthine] reads 94%; that for `Cn1c(=O)n(CCCCC(C)(C)O)c(=O)c2c1ncn2CC1CC1` [Compound 12, 7-cyclopropylmethyl-1-(5-hydroxy-5-methylhexyl)-3-methylxanthine], 85%.
Same read-out and setting: the result for `CCCCCCn1c(=O)c2c(ncn2C)n(C)c1=O` [Compound 14, 1-hexyl-3,7-dimethylxanthine] reads 85%.
